According to PubChem BioAssay (NCI):
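Cells were grown in 96-well plates and exposed to each compound for 48 hours at five concentrations; endpoints were interpolated linearly between bracketing concentrations, or set to the highest concentration if not reached. TGI denotes the concentration required for complete inhibition of growth.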

Experiments:
Experiment in all cases: NCI-60 cell line screen, 48 h
HOP-92 NSCLC = test system: HOP-92 NSCLC
TK-10 renal = test system: TK-10 renal
IGROV1 ovarian = test system: IGROV1 ovarian
RPMI-8226 leukemia = test system: RPMI-8226 leukemia
UACC-257 melanoma = test system: UACC-257 melanoma
SK-MEL-28 melanoma = test system: SK-MEL-28 melanoma
NCI/ADR-RES ovarian = test system: NCI/ADR-RES ovarian
SNB-19 CNS = test system: SNB-19 CNS
OVCAR-3 ovarian = test system: OVCAR-3 ovarian
HL-60(TB) leukemia = test system: HL-60(TB) leukemia
HCC-2998 colon = test system: HCC-2998 colon
LOX IMVI melanoma = test system: LOX IMVI melanoma
HCT-15 colon = test system: HCT-15 colon
UO-31 renal = test system: UO-31 renal
A549 NSCLC = test system: A549 NSCLC
SF-539 CNS = test system: SF-539 CNS
HS 578T breast = test system: HS 578T breast
OVCAR-4 ovarian = test system: OVCAR-4 ovarian
CAKI-1 renal = test system: CAKI-1 renal
NCI-H226 lung = test system: NCI-H226 lung
NCI-H522 lung = test system: NCI-H522 lung
SK-OV-3 ovarian = test system: SK-OV-3 ovarian
CCRF-CEM leukemia = test system: CCRF-CEM leukemia
786-0 renal = test system: 786-0 renal
MDA-N = test system: MDA-N
OVCAR-5 ovarian = test system: OVCAR-5 ovarian
NCI-H460 lung = test system: NCI-H460 lung
BT-549 breast = test system: BT-549 breast
SW-620 colon = test system: SW-620 colon
MDA-MB-435 = test system: MDA-MB-435
M14 melanoma = test system: M14 melanoma
MALME-3M melanoma = test system: MALME-3M melanoma
OVCAR-8 ovarian = test system: OVCAR-8 ovarian
ACHN renal = test system: ACHN renal
U251 CNS = test system: U251 CNS
HCT-116 colon = test system: HCT-116 colon
MDA-MB-231 breast = test system: MDA-MB-231 breast
COLO 205 colon = test system: COLO 205 colon
HT29 colon = test system: HT29 colon
UACC-62 melanoma = test system: UACC-62 melanoma
NCI-H23 lung = test system: NCI-H23 lung
K-562 leukemia = test system: K-562 leukemia
SN12C renal = test system: SN12C renal
SF-268 CNS = test system: SF-268 CNS
KM12 colon = test system: KM12 colon
SK-MEL-2 melanoma = test system: SK-MEL-2 melanoma
SNB-75 CNS = test system: SNB-75 CNS
A498 renal = test system: A498 renal
SK-MEL-5 melanoma = test system: SK-MEL-5 melanoma
T-47D breast = test system: T-47D breast
MCF7 breast = test system: MCF7 breast
DU-145 prostate = test system: DU-145 prostate
EKVX NSCLC = test system: EKVX NSCLC
MOLT-4 leukemia = test system: MOLT-4 leukemia
RXF 393 renal = test system: RXF 393 renal
HOP-62 NSCLC = test system: HOP-62 NSCLC
PC-3 prostate = test system: PC-3 prostate
SF-295 CNS = test system: SF-295 CNS

C=CC(COC(=O)C(C)(C)OC(C)=O)c1ccc(OC(=O)C(C)C)c(OC)c1 (stereo not drawn)
TGI (HOP-92 NSCLC): 11.7 µM | TGI (TK-10 renal): 24.8 µM | TGI (IGROV1 ovarian): 34.3 µM | TGI (RPMI-8226 leukemia): > 100 µM | TGI (UACC-257 melanoma): 31.5 µM | TGI (SK-MEL-28 melanoma): 35.5 µM | TGI (NCI/ADR-RES ovarian): > 84.9 µM | TGI (SNB-19 CNS): 23.2 µM | TGI (OVCAR-3 ovarian): 28.9 µM | TGI (HL-60(TB) leukemia): > 49 µM | TGI (HCC-2998 colon): 10.5 µM | TGI (LOX IMVI melanoma): > 33.3 µM | TGI (HCT-15 colon): 4.88 µM | TGI (UO-31 renal): 21.1 µM | TGI (A549 NSCLC): 47.5 µM | TGI (SF-539 CNS): 27.5 µM | TGI (HS 578T breast): 50.8 µM | TGI (OVCAR-4 ovarian): 22.4 µM | TGI (CAKI-1 renal): 4.07 µM | TGI (NCI-H226 lung): 49.9 µM | TGI (NCI-H522 lung): 6.38 µM | TGI (SK-OV-3 ovarian): 30.8 µM | TGI (CCRF-CEM leukemia): > 22 µM | TGI (786-0 renal): > 24.9 µM | TGI (MDA-N): 14 µM | TGI (OVCAR-5 ovarian): 32.5 µM | TGI (NCI-H460 lung): 7.78 µM | TGI (BT-549 breast): 22.5 µM | TGI (SW-620 colon): 52.8 µM | TGI (MDA-MB-435): 27.8 µM | TGI (M14 melanoma): 21.8 µM | TGI (MALME-3M melanoma): 8.78 µM | TGI (OVCAR-8 ovarian): > 89.3 µM | TGI (ACHN renal): 8.77 µM | TGI (U251 CNS): 25.8 µM | TGI (HCT-116 colon): > 48.9 µM | TGI (MDA-MB-231 breast): 9.36 µM | TGI (COLO 205 colon): 7.05 µM | TGI (HT29 colon): > 36.1 µM | TGI (UACC-62 melanoma): 27.8 µM | TGI (NCI-H23 lung): 39.3 µM | TGI (K-562 leukemia): > 63.5 µM | TGI (SN12C renal): > 37 µM | TGI (SF-268 CNS): > 43.9 µM | TGI (KM12 colon): 15.5 µM | TGI (SK-MEL-2 melanoma): 25.5 µM | TGI (SNB-75 CNS): 22.2 µM | TGI (A498 renal): 37.7 µM | TGI (SK-MEL-5 melanoma): 27.8 µM | TGI (T-47D breast): > 37.2 µM | TGI (MCF7 breast): > 22.8 µM | TGI (DU-145 prostate): 25.9 µM | TGI (EKVX NSCLC): 34.1 µM | TGI (MOLT-4 leukemia): 20.6 µM | TGI (RXF 393 renal): 19.7 µM | TGI (HOP-62 NSCLC): 23.5 µM | TGI (PC-3 prostate): 27 µM | TGI (SF-295 CNS): 19.9 µM
